# Assay results: US9012431B2, “Boron-containing small molecules as anti-inflammatory agents” (Anacor Pharmaceuticals, Inc., priority 2008, dated 2015)
# Where two headings read alike, the source gives them in different places.
# What was measured:
# IL-10 = test: Cytokine assay, IL-10 release from PBMC; assay type: cell-based; conditions: human PBMC, 20 ug/mL PHA, supernatant at 48 hours
# Method in brief: (§1)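 Using previously frozen human PBMC resuspended in medium of RPMI 1640 supplemented with 10% FBS, test article at 10, 1, 0.1 and 0.01 μM was evaluated in triplicate; DMSO stock was 10 mM.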
# IL-5 = test: Cytokine assay, IL-5 release from PBMC; assay type: cell-based; conditions: human PBMC, 20 ug/mL PHA, supernatant at 48 hours
# Method in brief: as §1
# hERG-channel = hERG-channel (Homo sapiens, UniProt Q12809); test: hERG-channel block; assay type: biochemical; conditions: C17 at 1 μM
# TNF-α = test: Cytokine assay, TNF-α release from PBMC; assay type: cell-based; conditions: Homo sapiens, PBMC, 24 h, 1 μg/mL LPS, supernatant at 24 hours
# Method in brief: as §1
# PDE4Cat = test system: T1, PDE4Cat; test: PDE4Cat inhibition; assay type: biochemical; conditions: standard: Rolipram
# T1 construct: Recombinant human PDE enzymes were expressed in a baculoviral system.
# PDE5 = PDE5 (Homo sapiens, UniProt O76074); test: PDE5 inhibition; assay type: biochemical
# [1] = test system: IL-2 secretion from PBMCs; test: IL-2 secretion from PBMCs stimulated with PHA; assay type: cell-based, human; conditions: PBMC
# From the text: (§2) Compounds were screened by a biochemical assay against PDE4 enzyme and cell-based cytokine release assays using PBMCs stimulated by LPS or phytohemagglutinin (PHA).
# [2] = test system: Salmonella typhimurium strains TA98, TA100, TA1535, and TA1537; test: Bacterial mutagenicity assay with/without Aroclor-induced S9 (Salmonella); assay type: cell-based; conditions: up to 5000 μg per plate; presence or absence of Aroclor-induced S9 liver fraction
# PDE7A1 = molecular target: T2, PDE7A1 (Homo sapiens, UniProt Q13946); test: PDE7 inhibition; assay type: biochemical
# T2 construct: made in house; host or cells: baculoviral expression system
# IL-2 = test: Cytokine assay, IL-2 release from PBMC; assay type: cell-based; conditions: human PBMC, 20 ug/mL PHA, supernatant at 24 hours
# Method in brief: as §1
# Sprague-Dawley rats = conditions: oral 30, 100, and 300 mg/kg/day, 14 consecutive days
# IFN-γ = test: Cytokine assay, IFN-γ release from PBMC; assay type: cell-based; conditions: human PBMC, 20 ug/mL PHA, supernatant at 24 hours
# Method in brief: as §1
# [3] = test system: TNF-α secretion from peripheral blood mononuclear cells (PBMCs); test: TNF-α secretion from PBMCs stimulated by LPS; assay type: cell-based, human; conditions: PBMC
# From the text: as §2
# [4] = test system: IL-10 production by human PBMCs; test: IL-10 production by LPS- or PHA-stimulated PBMCs; assay type: cell-based
# all four PDE4 isoforms = test: PDE4 isoform inhibition; assay type: biochemical
# PDE1A3 = molecular target: T3, PDE1A3 (Homo sapiens, UniProt P54750); test: PDE1 inhibition; assay type: biochemical
# T3 construct: made in house; host or cells: baculoviral expression system
# [5] = test system: T4, phosphodiesterase 4 (PDE4) enzyme derived from human U937 cells; test: PDE4 enzyme activity (enzyme derived from human U937 cells); assay type: biochemical
# T4 construct: PDE4 IC50; other: biochemical assay, PDE4 enzyme derived from human U937 cells; other: PDE4 in human U937 cells
# From the text: (§3) The structure-activity relationships of novel boron-containing anti-inflammatory agents was investigated.
# as §2
# [6] = test system: phosphodiesterase 4 (PDE4) enzyme derived from human U937 cells; test: as above; assay type: biochemical; conditions: versus substrate cAMP
# From the text: as §3, §2
# [7] = test system: IL-6 production by human PBMCs; test: IL-6 production by LPS- or PHA-stimulated PBMCs; assay type: cell-based
# [8] = test system: IL-23 production from human THP-1 macrophages; test: IL-23 production by THP-1 cells stimulated with IFN-g and LPS; assay type: cell-based
# [9] = test system: IL-5 production by human PBMCs; test: IL-5 production by LPS- or PHA-stimulated PBMCs; assay type: cell-based
# PDE2 = molecular target: T5, PDE2 (Homo sapiens, UniProt O00408); test: PDE2 inhibition; assay type: biochemical
# T5 construct: made in house; host or cells: baculoviral expression system
# [10] = test system: Escherichia coli strain WP2 uvrA; test: Bacterial mutagenicity assay with/without Aroclor-induced S9 (E. coli); assay type: cell-based; conditions: up to 5000 μg per plate; presence or absence of Aroclor-induced S9 liver fraction
# [11] = test system: CD-1 (Crl.) derived male mice; test: Phorbol Ester Induced Mouse Ear Edema Model; assay type: in vivo; conditions: topical, 6 h, 1 mg/ear × 2 topical, vehicle not given, ear swelling 6 hours after PMA
# Method in brief: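 Test compounds in acetone:ethanol 1:1 were applied topically to both ears 30 min before and 15 min after PMA challenge; dexamethasone positive control followed the same schedule. Ear thickness was measured by micrometer 6 h after PMA, and percent inhibition was calculated from ear-thickness increase versus vehicle controls.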
# [12] = test system: IFN-γ secretion from PBMCs; test: IFN-γ secretion from PBMCs stimulated with PHA; assay type: cell-based, human; conditions: PBMC
# From the text: as §2
# shrews (Suncus murinus) = conditions: shrew (Suncus murinus), in vivo, po
# T2 sequence (Q13946 whole entry): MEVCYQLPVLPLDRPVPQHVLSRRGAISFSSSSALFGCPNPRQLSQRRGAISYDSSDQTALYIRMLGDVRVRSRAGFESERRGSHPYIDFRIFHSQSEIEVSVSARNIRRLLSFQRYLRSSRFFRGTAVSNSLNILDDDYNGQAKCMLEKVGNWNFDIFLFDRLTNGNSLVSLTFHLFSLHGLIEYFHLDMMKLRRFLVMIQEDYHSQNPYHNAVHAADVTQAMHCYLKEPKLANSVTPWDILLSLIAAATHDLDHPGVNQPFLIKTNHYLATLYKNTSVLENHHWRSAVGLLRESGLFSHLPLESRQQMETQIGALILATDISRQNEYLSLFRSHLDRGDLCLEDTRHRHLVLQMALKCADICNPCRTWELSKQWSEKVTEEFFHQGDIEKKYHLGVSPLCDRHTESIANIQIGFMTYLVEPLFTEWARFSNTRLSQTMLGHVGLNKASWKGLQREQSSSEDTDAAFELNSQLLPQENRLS
# T3 sequence (P54750 whole entry): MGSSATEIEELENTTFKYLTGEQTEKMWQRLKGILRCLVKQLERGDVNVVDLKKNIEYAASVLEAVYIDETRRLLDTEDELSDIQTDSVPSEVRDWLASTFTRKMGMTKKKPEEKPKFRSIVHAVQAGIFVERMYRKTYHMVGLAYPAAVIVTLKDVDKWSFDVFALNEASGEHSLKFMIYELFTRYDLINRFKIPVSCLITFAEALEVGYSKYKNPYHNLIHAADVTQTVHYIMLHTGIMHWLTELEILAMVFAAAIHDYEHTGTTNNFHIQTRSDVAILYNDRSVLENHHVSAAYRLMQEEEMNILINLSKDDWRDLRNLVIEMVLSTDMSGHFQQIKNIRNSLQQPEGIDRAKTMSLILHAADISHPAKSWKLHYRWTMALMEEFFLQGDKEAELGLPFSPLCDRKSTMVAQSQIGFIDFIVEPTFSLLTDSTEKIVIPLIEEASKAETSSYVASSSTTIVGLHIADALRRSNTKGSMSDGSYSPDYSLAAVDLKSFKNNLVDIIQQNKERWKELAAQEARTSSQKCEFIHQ
# T5 sequence (O00408 whole entry): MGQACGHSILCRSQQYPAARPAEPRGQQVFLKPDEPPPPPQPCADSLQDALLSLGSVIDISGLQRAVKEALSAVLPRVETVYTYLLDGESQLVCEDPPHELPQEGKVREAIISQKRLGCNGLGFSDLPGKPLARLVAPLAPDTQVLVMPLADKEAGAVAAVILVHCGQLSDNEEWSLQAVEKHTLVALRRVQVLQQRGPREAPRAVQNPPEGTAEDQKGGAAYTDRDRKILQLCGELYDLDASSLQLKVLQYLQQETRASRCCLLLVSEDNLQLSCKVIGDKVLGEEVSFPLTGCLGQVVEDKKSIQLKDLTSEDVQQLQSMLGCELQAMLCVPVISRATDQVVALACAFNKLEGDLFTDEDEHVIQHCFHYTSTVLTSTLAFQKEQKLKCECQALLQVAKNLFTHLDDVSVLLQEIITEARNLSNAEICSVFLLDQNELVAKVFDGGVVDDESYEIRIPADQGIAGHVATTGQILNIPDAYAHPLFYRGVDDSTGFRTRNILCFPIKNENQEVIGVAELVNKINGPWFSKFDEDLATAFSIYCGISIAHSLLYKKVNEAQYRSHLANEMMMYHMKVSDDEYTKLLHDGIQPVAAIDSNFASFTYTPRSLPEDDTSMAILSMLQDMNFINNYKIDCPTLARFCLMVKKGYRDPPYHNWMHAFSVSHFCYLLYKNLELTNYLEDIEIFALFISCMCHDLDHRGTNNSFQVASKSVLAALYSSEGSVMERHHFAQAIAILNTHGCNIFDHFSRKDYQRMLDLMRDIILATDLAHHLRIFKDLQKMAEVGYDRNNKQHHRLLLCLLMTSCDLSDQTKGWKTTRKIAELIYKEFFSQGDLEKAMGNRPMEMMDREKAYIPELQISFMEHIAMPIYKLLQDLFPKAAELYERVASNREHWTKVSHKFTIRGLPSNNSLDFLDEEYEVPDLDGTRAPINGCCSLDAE
# Chain of hERG-channel (Q12809 whole entry): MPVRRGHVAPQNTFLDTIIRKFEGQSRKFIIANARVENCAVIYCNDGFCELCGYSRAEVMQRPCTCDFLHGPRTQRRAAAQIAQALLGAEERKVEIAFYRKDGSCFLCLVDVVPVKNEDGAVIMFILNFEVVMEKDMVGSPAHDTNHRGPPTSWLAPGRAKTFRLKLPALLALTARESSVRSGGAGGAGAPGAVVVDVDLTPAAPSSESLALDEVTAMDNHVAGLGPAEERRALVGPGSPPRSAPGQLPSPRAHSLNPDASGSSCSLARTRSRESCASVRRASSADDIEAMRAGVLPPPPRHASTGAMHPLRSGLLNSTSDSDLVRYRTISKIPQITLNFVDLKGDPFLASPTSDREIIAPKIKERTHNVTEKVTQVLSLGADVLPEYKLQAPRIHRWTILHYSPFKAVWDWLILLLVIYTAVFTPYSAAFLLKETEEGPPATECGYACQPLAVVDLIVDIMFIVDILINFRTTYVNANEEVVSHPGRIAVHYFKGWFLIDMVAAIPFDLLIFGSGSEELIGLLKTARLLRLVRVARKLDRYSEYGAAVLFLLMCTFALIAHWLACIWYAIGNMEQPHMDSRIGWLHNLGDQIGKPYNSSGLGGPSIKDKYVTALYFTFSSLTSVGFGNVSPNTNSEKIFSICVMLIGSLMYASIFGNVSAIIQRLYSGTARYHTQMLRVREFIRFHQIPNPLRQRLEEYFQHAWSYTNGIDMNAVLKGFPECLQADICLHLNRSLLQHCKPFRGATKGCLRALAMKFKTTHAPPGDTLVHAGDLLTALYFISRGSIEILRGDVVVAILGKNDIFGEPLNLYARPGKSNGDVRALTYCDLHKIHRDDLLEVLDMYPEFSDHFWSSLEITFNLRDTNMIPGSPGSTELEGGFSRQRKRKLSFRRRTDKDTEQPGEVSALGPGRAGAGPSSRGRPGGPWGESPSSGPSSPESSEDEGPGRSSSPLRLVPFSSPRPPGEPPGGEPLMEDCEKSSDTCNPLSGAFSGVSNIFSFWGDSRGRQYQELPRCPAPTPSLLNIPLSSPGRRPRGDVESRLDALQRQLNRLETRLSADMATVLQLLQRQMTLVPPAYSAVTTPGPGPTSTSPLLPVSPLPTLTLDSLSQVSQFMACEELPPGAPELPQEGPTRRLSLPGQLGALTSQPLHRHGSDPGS
structure (smiles),measurement,setting,value
"N#Cc1ccc(Oc2ccc3c(c2)COB3O)cc1 [C17, 5-(4-cyanophenoxy)-1-hydroxy-1,3-dihydro-2,1-benzoxaborole]",IC50,IL-10,4 to 10 µM
same,IC50,IL-5,1 to 4 µM
same,hERG-channel blocker classification,hERG-channel,low potency hERG-channel blocker
same,IC50,TNF-α,< 1 µM
same,IC50,PDE4Cat,< 1 µM
same,inhibition of PDE5,PDE5,does not significantly inhibit
same,IC50,"[1]; Homo sapiens, PBMCs stimulated with PHA, read-out: IL-2 secretion IC50",0.46 µM
same,IC50,"[1]; LPS- and PHA-induced cytokine production by human PBMCs, read-out: IC50 IL-2 (Th1 cytokines)",< 1 µM
same,mutagenic activity,[2],no mutagenic activity
same,IC50,PDE7A1; read-out: PDE7 IC50,0.73 µM
same,IC50,"PDE7A1; standard: BRL-50481, read-out: IC50 PDE7A1",< 1 µM
same,IC50,IL-2,< 1 µM
same,"mortality, clinical pathology, microscopic or macroscopic changes",Sprague-Dawley rats,"No mortality, adverse effects on clinical pathology, or microscopic or macroscopic changes were observed in any dose group"
same,IC50,IFN-γ,< 1 µM
same,IC50,"[3]; Homo sapiens, PBMCs stimulated by LPS, read-out: TNF-α secretion IC50",0.77 µM
same,IC50,"[3]; LPS- and PHA-induced cytokine production by human PBMCs, read-out: IC50 TNFα (pro-inflammatory cytokines)",< 1 µM
same,IC50,"[4]; PBMC, LPS- and PHA-induced cytokine production by human PBMCs, read-out: IC50 IL-10 (Th2 cytokines)",< 1 µM
same,"IL-10 inhibition, range in words",[4]; PBMCs,low micromolar range
same,inhibition of PDE4 isoforms,all four PDE4 isoforms,inhibiting all four PDE4 isoforms equally
same,inhibition of PDE1,PDE1A3,does not significantly inhibit
same,IC50,PDE1A3; standard: 8-methoxymethyl-IBMX,1 to 10 µM
same,IC50,"[5]; PDE4 in human U937 cells, read-out: PDE4 enzyme activity IC50",0.49 µM
same,IC50,"[5]; biochemical assay, PDE4 enzyme derived from human U937 cells, read-out: PDE4 IC50",0.49 µM
same,mode of inhibition (enzyme kinetic analysis),[6],competitive inhibitor
same,IC50,"[7]; PBMC, LPS- and PHA-induced cytokine production by human PBMCs, read-out: IC50 IL-6 (pro-inflammatory cytokines)",> 30 µM
same,effect on IL-6,[7]; PBMCs,not affected
same,IC50,"[8]; human THP-1 macrophages, read-out: IL-23 production IC50",2.25 µM
same,IC50,"[8]; human THP-1 monocytic cells stimulated with IFN-g and LPS, read-out: IC50 IL-23*",1 to 10 µM
same,IC50,"[9]; PBMC, LPS- and PHA-induced cytokine production by human PBMCs, read-out: IC50 IL-5 (Th2 cytokines)",1 to 10 µM
same,"IL-5 inhibition, range in words",[9]; PBMCs,low micromolar range
same,inhibition of PDE2,PDE2,does not significantly inhibit
same,mutagenic activity,[10],no mutagenic activity
same,inhibition in vivo at 1 mg,[11],60 to 90%
same,IC50,"[12]; Homo sapiens, PBMCs stimulated with PHA, read-out: IFN-γ secretion IC50",0.27 µM
same,IC50,"[12]; LPS- and PHA-induced cytokine production by human PBMCs, read-out: IC50 IFNg (Th1 cytokines)",< 1 µM
same,"no-observed-effect level (NOEL), emesis",shrews (Suncus murinus),10 mg/kg
